The record followed here is patent publication US12503438B2, “Compounds for the treatment of kinase-dependent disorders” (Exelixis, Inc., priority 2019, dated 2025).

The target in test [1] is T1, AXL (Homo sapiens, UniProt P30530).
T1 construct: endogenous in cells; host or cells: A-172 glioblastoma cells (ATCC #CRL-1620)
T1 sequence (P30530 26-894): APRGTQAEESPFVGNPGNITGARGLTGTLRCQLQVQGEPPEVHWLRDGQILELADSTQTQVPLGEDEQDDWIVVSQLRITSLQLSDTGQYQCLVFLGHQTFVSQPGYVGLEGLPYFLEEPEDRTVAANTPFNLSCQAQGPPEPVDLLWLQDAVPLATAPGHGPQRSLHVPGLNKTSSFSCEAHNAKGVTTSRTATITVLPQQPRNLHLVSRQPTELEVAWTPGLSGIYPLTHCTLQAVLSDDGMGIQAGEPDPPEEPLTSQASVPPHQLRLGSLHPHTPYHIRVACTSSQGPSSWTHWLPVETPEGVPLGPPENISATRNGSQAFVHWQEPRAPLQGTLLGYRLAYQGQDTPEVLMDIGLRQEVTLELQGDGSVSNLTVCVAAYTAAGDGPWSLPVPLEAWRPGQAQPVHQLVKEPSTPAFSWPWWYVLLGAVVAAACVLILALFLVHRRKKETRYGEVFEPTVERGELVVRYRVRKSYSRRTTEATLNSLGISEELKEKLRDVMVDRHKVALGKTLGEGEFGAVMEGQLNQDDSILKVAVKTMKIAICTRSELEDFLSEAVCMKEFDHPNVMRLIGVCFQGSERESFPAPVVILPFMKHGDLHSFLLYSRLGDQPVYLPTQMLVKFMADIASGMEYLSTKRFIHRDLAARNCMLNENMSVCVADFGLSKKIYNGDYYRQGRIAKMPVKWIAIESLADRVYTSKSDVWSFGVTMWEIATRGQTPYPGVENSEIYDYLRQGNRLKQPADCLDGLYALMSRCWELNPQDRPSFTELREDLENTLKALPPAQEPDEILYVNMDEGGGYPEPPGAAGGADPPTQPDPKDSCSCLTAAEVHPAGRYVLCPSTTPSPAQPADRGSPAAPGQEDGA
The test can be described thus: AXL autophosphorylation ELISA in A-172 cells. In kind it is cell-based. Particulars: cellular activity, Gas6-stimulated, phospho-AXL ELISA. In a few lines:
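Serum-starved (24 h) A-172 glioblastoma cells got an 8-point compound series (0.3% DMSO) for 1 h, then 1 μg/mL human Gas6 for 15 min. Lysate phospho-AXL quantified by ELISA against phospho-AXL standard, normalized to DMSO and reference-inhibitor controls; IC50 by 4-parameter logistic fit.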

In test [2] the target is Met (Homo sapiens, UniProt P08581). The test can be described thus: Human Met kinase assay (33P-phosphoryl transfer radiometric, KinaseProfiler). Also noted: Human Met (residues R974-S1390 with A1209G and V1290L, 3.4 nM); purchased Eurofins Pharma Discovery Services UK Limited (KinaseProfiler service). Particulars: biochemical activity; 10 μM ATP; read-out: c-Met IC50. As for the experimental part: Kinase activity and compound inhibition were investigated using the ^33P-Phosphoryl transfer radiometric kinase assay, performed using the KinaseProfiler™ service of Eurofins Pharma Discovery Services UK Limited. Dose-response experiments were performed using nine compound concentrations in a 96-well microtiter plate. For each assay, all compounds were prepared to a 50× final assay concentration (50 μM) in 100% DMSO, then diluted in a half-log series, with the final top concentration at 1 μM. This working stock of the compound was added to the assay well as the first component in the reaction, followed by the remaining components as detailed in the following assay protocols below. The positive control wells (100% kinase activity) contain all components of the reaction including 2% DMSO (control for solvent effects), except the compound of interest. Blank wells contain all components of the reaction, with the reference inhibitor, staurosporine. This reference compound was used to abolish kinase activity and generated the 0% kinase activity base-line. IC50 values were calculated by nonlinear regression analysis using the sigmoidal dose-response (variable slope) curve fit on XLFit version 5.3 (ID Business Solutions).
Human Met (residues R974-S1390 with A1209G and V1290L, 3.4 nM) was incubated with 8 mM MOPS pH 7.0, 0.2 mM EDTA, 250 μM KKKGQEEEYVFIE, 1 mM sodium orthovanadate, 5 mM […], 10 mM magnesium acetate, and 10 μM [γ-^33P-ATP]. The reaction was initiated by the addition of the Mg/ATP mix. After incubation for 40 minutes at room temperature, the reaction was stopped by the addition of phosphoric acid to a concentration of 0.5%. A reaction aliquot of 10 μL was then spotted onto a P30 filtermat and washed four times for 4 minutes in 0.425% phosphoric acid and once in methanol prior to drying and scintillation counting. Incorporated ^33P was measured using the Wallac Microbeta scintillation counter (Perkin Elmer).

The structures appear in SMILES notation.

Sequence of Met (P08581 974-1390): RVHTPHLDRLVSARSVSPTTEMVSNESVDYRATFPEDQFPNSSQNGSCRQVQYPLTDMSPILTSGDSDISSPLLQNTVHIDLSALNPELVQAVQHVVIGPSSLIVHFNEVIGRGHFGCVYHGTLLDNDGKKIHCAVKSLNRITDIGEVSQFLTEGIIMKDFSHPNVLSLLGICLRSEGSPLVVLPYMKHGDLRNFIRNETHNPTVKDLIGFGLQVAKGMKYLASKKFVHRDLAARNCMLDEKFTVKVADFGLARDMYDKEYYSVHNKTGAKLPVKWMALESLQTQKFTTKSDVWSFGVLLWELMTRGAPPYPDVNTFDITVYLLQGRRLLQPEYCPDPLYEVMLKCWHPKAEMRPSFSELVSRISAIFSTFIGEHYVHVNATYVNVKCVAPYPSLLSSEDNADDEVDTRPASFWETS

On to `CN(C(=O)C1(C(=O)Nc2ccc(Oc3ccnc4cc(-c5cnn(C)c5)ccc34)cc2)CC1)c1ccc(F)cc1` [Compound 82A, 1-N′-(4-Fluorophenyl)-1-N′-methyl-1-N-[4-[7-(1-methylpyrazol-4-yl)quinolin-4-yl]oxyphenyl]cyclopropane-1,1-dicarboxamide], for which the IC50 in test [1] is greater than 300 nM; in test [2], 100 to 1000 nM.

With `COCCn1cc(-c2ccc3c(Oc4ccc(NC(=O)C5(C(=O)Nc6ccc(F)cc6)CC5)cc4)ccnc3c2)cn1` [Compound 10, 1-N′-(4-Fluorophenyl)-1-N-[4-[7-[1-(2-methoxyethyl)pyrazol-4-yl]quinolin-4-yl]oxyphenyl]cyclopropane-1,1-dicarboxamide], the IC50 was no more than 10 nM in test [1] and 10 to 100 nM in test [2].

As to `CNC(=O)c1cc2c(Oc3ccc(NC(=O)C4(C(=O)Nc5ccc(F)cc5)CC4)cc3)ccnc2cc1-c1cnn(C)c1` [Compound 77, 1-N′-(4-Fluorophenyl)-1-N-[4-[6-(methylcarbamoyl)-7-(1-methylpyrazol-4-yl)quinolin-4-yl]oxyphenyl]cyclopropane-1,1-dicarboxamide], the values for the IC50 in test [1] and in test [2] were 10 to 100 nM and no more than 10 nM, respectively.

On to `CC(C)(C)n1cc(-c2ccc3c(Oc4ccc(NC(=O)C5(C(=O)Nc6ccc(F)cc6)CC5)cc4)ccnc3c2)cn1` [Compound 23, 1-N-[4-[7-(1-tert-Butylpyrazol-4-yl)quinolin-4-yl]oxyphenyl]-1-N′-(4-fluorophenyl)cyclopropane-1,1-dicarboxamide], for which the IC50 in test [1] and in test [2] was 10 to 100 nM each time.

In the case of `O=C(Nc1ccc(F)cc1)C1(C(=O)Nc2ccc(Oc3ccnc4cc(-c5ccncc5)ccc34)cc2)CC1` [Compound 26, 1-N′-(4-Fluorophenyl)-1-N-[4-(7-pyridin-4-ylquinolin-4-yl)oxyphenyl]cyclopropane-1,1-dicarboxamide], the IC50 in test [1] and in test [2] was no more than 10 nM in each case.

Turning to `O=C(Nc1ccc(F)cc1)C1(C(=O)Nc2ccc(Oc3ccnc4cc(-c5ccn[nH]5)ccc34)cc2)CC1` [Compound 68, 1-N′-(4-Fluorophenyl)-1-N-[4-[7-(1H-pyrazol-5-yl)quinolin-4-yl]oxyphenyl]cyclopropane-1,1-dicarboxamide], the IC50 in test [1] and in test [2] was no more than 10 nM throughout.

For `O=C(Nc1ccc(F)cc1)C1(C(=O)Nc2ccc(Oc3ccnc4cc(-c5ncc[nH]5)ccc34)cc2)CC1` [Compound 74, 1-N′-(4-Fluorophenyl)-1-N-[4-[7-(1H-imidazol-2-yl)quinolin-4-yl]oxyphenyl]cyclopropane-1,1-dicarboxamide], the IC50 in test [1] is 10 to 100 nM; in test [2], no more than 10 nM.

As for `O=C(Nc1ccc(F)cc1)C1(C(=O)Nc2ccc(Oc3ccnc4cc(-c5cnn(C6CC6)c5)ccc34)cc2)CC1` [Compound 22, 1-N-[4-[7-(1-Cyclopropylpyrazol-4-yl)quinolin-4-yl]oxyphenyl]-1-N′-(4-fluorophenyl)cyclopropane-1,1-dicarboxamide], the IC50 in test [1] is 10 to 100 nM; in test [2], no more than 10 nM.

For the molecule `O=C(Nc1ccc(F)cc1)C1(C(=O)Nc2ccc(Oc3ccnc4cc(-c5cncnc5)ccc34)cc2)CC1` [Compound 27, 1-N′-(4-Fluorophenyl)-1-N-[4-(7-pyrimidin-5-ylquinolin-4-yl)oxyphenyl]cyclopropane-1,1-dicarboxamide], the values for the IC50 in test [1] and in test [2] were 10 to 100 nM and no more than 10 nM, respectively.

Turning to `O=C(Nc1ccc(F)cc1)C1(C(=O)Nc2ccc(Oc3ccnc4cc(-c5cnn[nH]5)ccc34)cc2)CC1` [Compound 65, 1-N′-(4-Fluorophenyl)-1-N-[4-[7-(1H-triazol-5-yl)quinolin-4-yl]oxyphenyl]cyclopropane-1,1-dicarboxamide], the IC50 in test [1] was greater than 300 nM; in test [2], 100 to 1000 nM.

In the case of `CN1CCC(n2cc(-c3ccc4c(Oc5ccc(NC(=O)C6(C(=O)Nc7ccc(F)cc7)CC6)cc5)ccnc4c3)cn2)CC1` [Compound 61, 1-N′-(4-Fluorophenyl)-1-N-[4-[7-[1-(1-methylpiperidin-4-yl)pyrazol-4-yl]quinolin-4-yl]oxyphenyl]cyclopropane-1,1-dicarboxamide], the IC50 in test [1] and in test [2] was no more than 10 nM each time.

For the molecule `O=C(Nc1ccc(F)cc1)C1(C(=O)Nc2ccc(Oc3ccnc4cc(-c5cnn(CCN6CCOCC6)c5)ccc34)cc2)CC1` [Compound 19, 1-N′-(4-Fluorophenyl)-1-N-[4-[7-[1-(2-morpholin-4-ylethyl)pyrazol-4-yl]quinolin-4-yl]oxyphenyl]cyclopropane-1,1-dicarboxamide], the IC50 in test [1] and in test [2] was no more than 10 nM in each case.

Regarding `O=C(Nc1ccc(F)cc1)C1(C(=O)Nc2ccc(Oc3ccnc4cc(-c5ccccn5)ccc34)cc2)CC1` [Compound 85, 1-N′-(4-Fluorophenyl)-1-N-[4-(7-pyridin-2-ylquinolin-4-yl)oxyphenyl]cyclopropane-1,1-dicarboxamide], the IC50 in test [1] and in test [2] was 10 to 100 nM each time.

As to `O=C(Nc1ccc(F)cc1)C1(C(=O)Nc2ccc(Oc3ccnc4cc(-c5ncco5)ccc34)cc2)CC1` [Compound 66, 1-N′-(4-Fluorophenyl)-1-N-[4-[7-(1,3-oxazol-2-yl)quinolin-4-yl]oxyphenyl]cyclopropane-1,1-dicarboxamide], the values for the half-inhibitory concentration (IC50) in test [1] and in test [2] were 10 to 100 nM and no more than 10 nM, respectively.

Consider `O=C(Nc1ccc(F)cc1)C1(C(=O)Nc2ccc(Oc3ccnc4cc(-c5cnn(CC(F)(F)F)c5)ccc34)cc2)CC1` [Compound 16, 1-N′-(4-Fluorophenyl)-1-N-[4-[7-[1-(2,2,2-trifluoroethyl)pyrazol-4-yl]quinolin-4-yl]oxyphenyl]cyclopropane-1,1-dicarboxamide], for which the IC50 in test [1] and in test [2] was 10 to 100 nM in each case.

For the molecule `CC(=O)N1CCC(n2cc(-c3ccc4c(Oc5ccc(NC(=O)C6(C(=O)Nc7ccc(F)cc7)CC6)cc5)ccnc4c3)cn2)CC1` [Compound 62, 1-N-[4-[7-[1-(1-Acetylpiperidin-4-yl)pyrazol-4-yl]quinolin-4-yl]oxyphenyl]-1-N′-(4-fluorophenyl)cyclopropane-1,1-dicarboxamide], the IC50 in test [1] and in test [2] was no more than 10 nM each time.

For `O=C(Nc1ccc(F)cc1)C1(C(=O)Nc2ccc(Oc3ccnc4cc(-c5cnoc5)ccc34)cc2)CC1` [Compound 57, 1-N′-(4-Fluorophenyl)-1-N-[4-[7-(1,2-oxazol-4-yl)quinolin-4-yl]oxyphenyl]cyclopropane-1,1-dicarboxamide], the IC50 in test [1] and in test [2] was no more than 10 nM each time.

As to `CS(=O)(=O)n1cc(-c2ccc3c(Oc4ccc(NC(=O)C5(C(=O)Nc6ccc(F)cc6)CC5)cc4)ccnc3c2)cn1` [Compound 79, 1-N′-(4-Fluorophenyl)-1-N-[4-[7-(1-methylsulfonylpyrazol-4-yl)quinolin-4-yl]oxyphenyl]cyclopropane-1,1-dicarboxamide], the IC50 in test [1] and in test [2] was no more than 10 nM throughout.
